Measured values from patent US20030212051A1, “Bile acid containing prodrugs with enhanced bioavailabilty” (priority 2003, published 2003).
Structures can show the parent of a compound that is named as a salt. Where two headings read alike, the source gives them in different places. Blank lines part the entries; values can stand above or below the compound they belong to.

Assays:
[1] = molecular target: T1, human intestinal bile acid transporter (hIBAT) (Homo sapiens, UniProt Q12908); experiment: Competitive inhibition of 3H-taurocholate uptake in COS-hIBAT cells; type: cell-based; conditions: for Ki: COS-7 cells transfected with hIBAT, HBSS with sodium, value (±SEM); for inhibition of 3H-taurocholate uptake / interaction with hIBAT (in words): COS-hIBAT cells, 0.25 μM 3H-taurocholate, valacyclovir 10 to 600 μM, atenolol 10 to 200 μM, glycine and taurine 50 to 200 μM, bile acids 1 to 100 μM
T1 construct: expressed in transfected cells; host or cells: COS-7 cells, transient transfection with pCMV5-hIBAT (LipofectAMINE 2000)
T1 sequence (Q12908 1-348): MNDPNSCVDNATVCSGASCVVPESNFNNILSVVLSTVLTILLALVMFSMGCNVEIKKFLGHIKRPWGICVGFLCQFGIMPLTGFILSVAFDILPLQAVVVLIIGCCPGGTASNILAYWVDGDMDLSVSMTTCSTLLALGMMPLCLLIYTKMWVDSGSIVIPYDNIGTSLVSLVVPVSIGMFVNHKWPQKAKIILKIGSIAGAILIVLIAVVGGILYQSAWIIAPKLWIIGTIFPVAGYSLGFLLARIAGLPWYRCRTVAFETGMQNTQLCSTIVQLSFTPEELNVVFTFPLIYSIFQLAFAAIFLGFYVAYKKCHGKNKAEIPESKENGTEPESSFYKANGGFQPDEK
Method: Cell dilutions are streaked on nutrient agar plates containing 50 μg/ml ampicillin, and incubated at 37° C. overnight. Isolated colonies are selected aseptically, and are used to inoculate a 200 ml nutrient broth culture containing 50 μg/ml ampicillin. […] After an isopropanol precipitation and ethanol wash, the DNA is reconstituted in 600 μl of sterile deionized water. […] Cells are transfected at 24 hours post seeding. For each well transfected, 0.8 μg hIBAT cDNA is combined with LipofectAMINE 2000 reagent and incubated at room temperature for 20 minutes to allow complexes to form. A volume of 100 μl of hIBAT-lipid complex is added to each well of cells.
Uptake studies are performed on COS-hIBAT cells at 24 hours post-transfection. […] Because bile acid transport is sodium dependent, this MHBSS approach allows for the simple modification of the uptake buffer to exclude all sources of sodium, and thus enables for a control uptake assay under sodium-free conditions.
Incubation conditions and analysis are performed as described for the Km and Vmax studies. The following equation (Formula 2) is used to estimate the Ki for a series of naturally occurring bile acids: [formula]
Inhibition studies are performed in triplicate.

Caco-2 monolayers = conditions: across Caco-2 monolayers; example value for reference marker; cited from earlier work
[2] = cited from earlier work
[3] = molecular target: T2, human intestinal peptide transporter (PepT1) (Homo sapiens, UniProt P46059); conditions: stable lines of CHO/PepT1; cited from earlier work
T2 sequence (P46059 1-708): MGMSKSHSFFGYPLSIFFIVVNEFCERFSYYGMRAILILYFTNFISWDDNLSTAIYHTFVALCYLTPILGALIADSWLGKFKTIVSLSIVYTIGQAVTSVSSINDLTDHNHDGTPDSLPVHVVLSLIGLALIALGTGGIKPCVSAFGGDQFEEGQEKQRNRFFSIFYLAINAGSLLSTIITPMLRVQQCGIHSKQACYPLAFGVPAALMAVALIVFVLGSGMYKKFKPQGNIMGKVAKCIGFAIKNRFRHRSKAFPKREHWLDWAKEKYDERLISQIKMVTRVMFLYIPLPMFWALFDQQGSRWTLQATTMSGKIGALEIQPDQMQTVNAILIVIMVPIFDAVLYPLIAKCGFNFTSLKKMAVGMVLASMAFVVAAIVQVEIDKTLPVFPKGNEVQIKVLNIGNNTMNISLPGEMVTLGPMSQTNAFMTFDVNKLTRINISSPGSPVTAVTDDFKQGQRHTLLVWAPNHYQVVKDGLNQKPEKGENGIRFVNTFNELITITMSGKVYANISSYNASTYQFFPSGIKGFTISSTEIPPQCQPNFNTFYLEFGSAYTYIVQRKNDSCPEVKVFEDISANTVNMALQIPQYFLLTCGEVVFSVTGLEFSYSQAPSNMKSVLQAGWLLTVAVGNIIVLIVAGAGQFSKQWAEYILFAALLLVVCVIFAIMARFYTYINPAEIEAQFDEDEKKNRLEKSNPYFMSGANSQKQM

[4] = read-out: Ki, inhibition of 3H-taurocholate uptake

Ki [1, 4]: 35.6 µM
Structure (SMILES): CC(C)[C@H](NC(=O)CC[C@@H](C)[C@H]1CC[C@H]2[C@@H]3[C@H](O)C[C@@H]4C[C@H](O)CC[C@]4(C)[C@H]3CC[C@]12C)C(=O)OCCOCn1cnc2c(=O)[nH]c(N)nc21 [acyclovir valylchenodeoxycholate]

Ki [1, 4]: 401 µM
Structure (SMILES): CC(C)C(NC(=O)CCC(C)C1CCC2C3CCC4CC(O)CCC4(C)C3CC(O)C12C)C(=O)OCCOCn1cnc2c(=O)[nH]c(N)nc21 (centres unmarked) [acyclovir valyldeoxycholate]

Ki [1]: 5.4 µM
Structure (SMILES): C[C@H](CCC(=O)O)[C@H]1CC[C@H]2[C@@H]3[C@H](O)C[C@@H]4C[C@H](O)CC[C@]4(C)[C@H]3CC[C@]12C [chenodeoxycholate]

inhibition of 3H-taurocholate uptake / interaction with hIBAT (in words) [1]: not reduced
Structure (SMILES): NCC(=O)O [glycine]

Structure (SMILES): C[C@H](CCC(=O)O)[C@H]1CC[C@H]2[C@@H]3CC[C@@H]4C[C@H](O)CC[C@]4(C)[C@H]3CC[C@]12C [lithocholate]
inhibition of 3H-taurocholate uptake / interaction with hIBAT (in words) [1]: never reaches 50% maximal velocity

Structure (SMILES): COCCc1ccc(OCC(O)CNC(C)C)cc1 (centres unmarked) [metoprolol tartrate]
permeability (Caco-2 monolayers): 40 ×10⁻⁶ cm/s

inhibition of 3H-taurocholate uptake / interaction with hIBAT (in words) [1]: not reduced
Structure (SMILES): NCCS(=O)(=O)O [taurine]

Structure (SMILES): CC(C)[C@H](N)C(=O)OCCOCn1cnc2c(=O)[nH]c(N)nc21 [valacyclovir]
inhibition of 3H-taurocholate uptake / interaction with hIBAT (in words) [1]: no inhibition | inhibition of 3H-taurocholate uptake / interaction with hIBAT (in words) ([1]; listed as Valacyclovir): do not inhibit | bioavailability after oral administration [2]: 54% | Ki [3]: 1100 µM
